According to ChEMBL document CHEMBL5727957, “1H-pyrazolo[4,3-b]pyridines as PDE1 inhibitors” (2020):
pIC50: −log10 of the molar value.

Legend:
[1] = target: Dual specificity calcium/calmodulin-dependent 3',5'-cyclic nucleotide phosphodiesterase 1A (Homo sapiens, UniProt P54750); assay: Inhibition Assay: PDE1A, PDE1B and PDE1C assays were performed as follows: the assays were performed in 60 μL samples containing a fixed amount of the PDE1 enzyme (sufficient to convert 20-25% of the cyclic nucleotide substrate), a buffer (50 mM HEPES pH 7.6; 10 mM MgCl2; 0.02% Tween20), 0.1 mg/ml BSA, 15 nM tritium labelled cAMP and varying amounts of inhibitors. Reactions were initiated by …
Dual specificity calcium/calmodulin-dependent 3',5'-cyclic nucleotide phosphodiesterase 1A, sequence (P54750 whole entry): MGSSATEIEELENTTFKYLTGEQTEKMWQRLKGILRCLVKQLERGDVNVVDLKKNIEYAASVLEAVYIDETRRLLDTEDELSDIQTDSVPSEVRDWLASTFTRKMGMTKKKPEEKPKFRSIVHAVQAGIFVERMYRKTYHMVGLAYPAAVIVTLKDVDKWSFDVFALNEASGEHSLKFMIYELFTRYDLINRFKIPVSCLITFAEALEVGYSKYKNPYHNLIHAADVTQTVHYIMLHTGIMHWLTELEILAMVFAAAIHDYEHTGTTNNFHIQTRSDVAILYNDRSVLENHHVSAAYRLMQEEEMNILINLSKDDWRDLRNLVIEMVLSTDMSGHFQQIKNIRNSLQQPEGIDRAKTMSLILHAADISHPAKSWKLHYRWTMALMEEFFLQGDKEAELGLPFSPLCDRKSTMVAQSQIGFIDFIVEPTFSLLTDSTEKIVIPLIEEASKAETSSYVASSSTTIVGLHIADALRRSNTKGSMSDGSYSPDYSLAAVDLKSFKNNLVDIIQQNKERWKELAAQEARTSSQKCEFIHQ
Description: (§1) Reactions were initiated by addition of the cyclic nucleotide substrate, and reactions were allowed to proceed for 1 hr at room temperature before being terminated through mixing with 20 μL (0.2 mg) yttrium silicate SPA beads (PerkinElmer).

[2] = target: Dual specificity calcium/calmodulin-dependent 3',5'-cyclic nucleotide phosphodiesterase 1C (Homo sapiens, UniProt Q14123); assay: as above
Dual specificity calcium/calmodulin-dependent 3',5'-cyclic nucleotide phosphodiesterase 1C, sequence (Q14123 whole entry): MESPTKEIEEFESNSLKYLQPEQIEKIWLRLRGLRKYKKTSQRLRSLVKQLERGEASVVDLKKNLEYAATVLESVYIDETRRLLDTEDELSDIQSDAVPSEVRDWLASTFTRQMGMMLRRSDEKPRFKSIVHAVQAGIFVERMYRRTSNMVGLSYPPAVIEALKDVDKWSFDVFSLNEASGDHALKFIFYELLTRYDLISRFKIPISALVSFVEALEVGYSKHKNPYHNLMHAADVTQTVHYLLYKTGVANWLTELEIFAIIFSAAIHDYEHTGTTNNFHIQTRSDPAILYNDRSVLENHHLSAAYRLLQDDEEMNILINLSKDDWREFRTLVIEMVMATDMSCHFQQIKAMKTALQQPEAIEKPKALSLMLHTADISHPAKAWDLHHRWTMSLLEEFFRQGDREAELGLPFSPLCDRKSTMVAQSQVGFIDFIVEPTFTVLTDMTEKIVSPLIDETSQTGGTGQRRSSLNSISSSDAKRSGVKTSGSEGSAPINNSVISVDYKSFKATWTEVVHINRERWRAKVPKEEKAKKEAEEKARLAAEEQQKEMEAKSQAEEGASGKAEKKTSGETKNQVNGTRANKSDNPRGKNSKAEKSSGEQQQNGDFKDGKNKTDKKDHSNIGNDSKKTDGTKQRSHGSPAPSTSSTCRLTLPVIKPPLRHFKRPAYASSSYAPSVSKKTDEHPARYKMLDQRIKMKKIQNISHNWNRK
Description: as §1

CCOc1ncccc1-c1cc(NCc2cccn3c(C)nnc23)c2c(n1)c(C)nn2C(C)C
pIC50 [1]: 8.52 | pIC50 [2]: 8.21

CCOc1ncccc1-c1cc(NCc2cccc3ocnc23)c2c(n1)c(C)nn2C(C)C
pIC50 [1]: 7.85 | pIC50 [2]: 7.41
